The values that follow come from patent publication US11242337B2, “Compounds useful for treating gastrointestinal tract disorders” (Ardelyx, Inc., priority 2017, dated 2022).

Molecules are shown by their SMILES. Where two headings read alike, the source gives them in different places.

Test [1] deals with absorption of sodium from the intestinal lumen. The experiment in a line: Inhibition of intestinal sodium absorption in mice. Type of test: in vivo. The following applies: CD-1 mice, 15 mg/kg oral gavage twice daily; for Fecal fluid content (Δ from vehicle): day 3, change from vehicle group mean; for response vs control in vivo at 15 mg/kg: Mus musculus, 72 h, day 3, normalized to dietary sodium intake. In a few lines:
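Male ~8-week CD-1 mice on chow with added 0.4% inorganic phosphorous, in metabolic cages after 3-day acclimation and 24-hr baseline collection. Urine sodium by ion chromatography, dried fecal sodium by MP-AES; day-3 24-hour excretion normalized to dietary sodium intake and expressed as % of vehicle mean; diarrhea and fecal fluid also recorded.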

For the next test, the target named is T1, NHE3 (Homo sapiens, UniProt P48764).
T1 construct: expressed in transfected cells
T1 sequence (P48764 26-834): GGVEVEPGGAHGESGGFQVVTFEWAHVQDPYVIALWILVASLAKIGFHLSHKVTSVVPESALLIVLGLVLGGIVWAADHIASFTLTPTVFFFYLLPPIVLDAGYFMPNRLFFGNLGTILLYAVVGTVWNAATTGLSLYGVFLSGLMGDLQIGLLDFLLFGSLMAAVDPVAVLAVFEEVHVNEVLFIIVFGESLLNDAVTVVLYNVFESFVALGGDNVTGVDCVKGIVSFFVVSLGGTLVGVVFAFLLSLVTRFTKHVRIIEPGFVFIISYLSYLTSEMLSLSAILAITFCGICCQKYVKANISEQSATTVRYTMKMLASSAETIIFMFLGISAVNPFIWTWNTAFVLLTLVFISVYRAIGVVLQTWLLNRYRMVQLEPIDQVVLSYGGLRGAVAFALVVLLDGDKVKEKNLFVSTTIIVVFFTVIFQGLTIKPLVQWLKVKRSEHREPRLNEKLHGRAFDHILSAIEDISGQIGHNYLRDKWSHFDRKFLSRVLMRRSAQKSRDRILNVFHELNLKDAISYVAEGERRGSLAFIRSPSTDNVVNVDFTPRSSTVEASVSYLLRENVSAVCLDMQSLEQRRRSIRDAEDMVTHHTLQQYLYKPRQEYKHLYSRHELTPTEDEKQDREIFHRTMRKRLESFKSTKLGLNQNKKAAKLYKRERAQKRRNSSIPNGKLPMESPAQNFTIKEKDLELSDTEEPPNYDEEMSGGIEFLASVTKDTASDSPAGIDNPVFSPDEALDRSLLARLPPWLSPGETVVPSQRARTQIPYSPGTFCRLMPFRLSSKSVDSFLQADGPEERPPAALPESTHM
T1 sequence (Q99653 2-195 partner limits assumed): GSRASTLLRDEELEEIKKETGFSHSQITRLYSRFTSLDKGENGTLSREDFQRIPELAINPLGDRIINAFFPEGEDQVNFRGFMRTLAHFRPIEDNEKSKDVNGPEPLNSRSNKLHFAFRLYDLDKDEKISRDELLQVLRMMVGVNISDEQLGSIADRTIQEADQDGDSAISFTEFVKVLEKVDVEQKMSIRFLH
The experiment in a line: Cell-based assay of NHE-3 activity (persistent inhibition), human. Particulars: human Persistence, 60 min incubation then washout. In a few lines:
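Persistent inhibition: compound (0-30 μM, 60 min, RT, NaCl-HEPES pH 7.4) removed before assay. Human NHE3/NHERF2 PS120 cells were then BCECF-loaded during NH4Cl pulse (30 min, 37 °C), acidified in Na+-free buffer, and Na+ added 10 min after washout; antiport measured as initial fluorescence-ratio change per minute.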

Where [2] appears, read: read-out: Fecal Na Excretion (% of vehicle).
The mark [3] stands for this setting: read-out: Urinary Na Excretion (% of vehicle).

As for `N#Cc1cc(Cl)cc2c1C[C@H](N1CCNCC1)[C@H]2Oc1ccc(S(=O)(=O)NCCOCCOCCNC(=O)NCCCCNC(=O)NCCOCCOCCNS(=O)(=O)c2ccc(O[C@H]3c4cc(Cl)cc(C#N)c4C[C@@H]3N3CCNCC3)c(F)c2)cc1F` [Example 43, 3-[2-(2-[2-[(4-[[(1S,2S)-6-Chloro-4-cyano-2-(piperazin-1-yl)-2,3-dihydro-1H-inden-1-yl]oxy]-3-fluorobenzene)sulfonamido]ethoxy]ethoxy)ethyl]-1-[4-([[2-(2-[2-[(4-[[(1S,2S)-6-chloro-4-cyano-2-(piperazin-1-yl)-2,3-dihydro-1H-inden-1-yl]oxy]-3-fluorobenzene)sulfonamido]ethoxy]ethoxy)ethyl]carbamoyl]amino)butyl]urea; bis(trifluoroacetic acid)], the “Fecal fluid content (Δ from vehicle)” value in test [1] is “C (>10)”. The response vs control in vivo at 15 mg/kg in test [1] (setting [2]) was more than 200%. The response vs control in vivo at 15 mg/kg in test [1] (setting [3]) is less than 50%. Moreover, on NHE3, the “% inhibition” value is “C (>70%)” and the pIC50 entry was “C (NHE3 pIC50 > 7)”.

As to `Cc1cc(S(=O)(=O)N2CC[C@@H](COCCOCCNC(=O)NCCCCNC(=O)NCCOCCOC[C@@H]3CCN(S(=O)(=O)c4ccc(O[C@H]5c6cc(Cl)cc(Cl)c6C[C@@H]5N(C)C)c(C)c4)C3)C2)ccc1O[C@H]1c2cc(Cl)cc(Cl)c2C[C@@H]1N(C)C` [Example 45, 3-[2-(2-[[(3R)-1-[(4-[[(1S,2S)-4,6-Dichloro-2-(dimethylamino)-2,3-dihydro-1H-inden-1-yl]oxy]-3-methylbenzene)sulfonyl]pyrrolidin-3-yl]methoxy]ethoxy)ethyl]-1-[4-([[2-(2[[(3R)-1-[(4-[[(1S,2S)-4,6-dichloro-2-(dimethylamino)-2,3-dihydro-1H-inden-1-yl]oxy]-3-methylbenzene)sulfonyl]pyrrolidin-3-yl]methoxy]ethoxy)ethyl]carbamoyl]amino)butyl]urea; bis(trifluoroacetic acid)], the “Fecal fluid content (Δ from vehicle)” value in test [1] is on record as “A (<5)”. Moreover, the results for the response vs control in vivo at 15 mg/kg in test [1] (setting [2]) and in test [1] (setting [3]) were less than 150% and more than 70%, respectively. The “% inhibition” value on NHE3 is “C (>70%)”. For the same compound, the pIC50 entry on NHE3 is “C (NHE3 pIC50 > 7)”.

With `Cc1cc(S(=O)(=O)N2CC[C@@H](COc3ccnc(CNC(=O)NCCCCNC(=O)NCc4cc(OC[C@@H]5CCN(S(=O)(=O)c6ccc(O[C@H]7c8cc(Cl)cc(Cl)c8C[C@@H]7N(C)C)c(C)c6)C5)ccn4)c3)C2)ccc1O[C@H]1c2cc(Cl)cc(Cl)c2C[C@@H]1N(C)C` [Example 49, 3-[(4-[[(3R)-1-[(4-[[(1S,2S)-4,6-Dichloro-2-(dimethylamino)-2,3-dihydro-1H-inden-1-yl]oxy]-3-methylbenzene)sulfonyl]pyrrolidin-3-yl]methoxy]pyridin-2-yl)methyl]-1-[4-([[(4-[[(3R)-1-[(4-[[(1S,2S)-4,6-dichloro-2-(dimethylamino)-2,3-dihydro-1H-inden-1-yl]oxy]-3-methylbenzene)sulfonyl]pyrrolidin-3-yl]methoxy]pyridin-2-yl)methyl]carbamoyl]amino)butyl]urea], the “Fecal fluid content (Δ from vehicle)” value in test [1] is recorded as “A (<5)”. In addition, in test [1] (setting [2]), the response vs control in vivo at 15 mg/kg is less than 150%. Also, the response vs control in vivo at 15 mg/kg in test [1] (setting [3]) was more than 70%. Also, on NHE3, the “% inhibition” value is “C (>70%)” and the pIC50 entry is given as “C (NHE3 pIC50 > 7)”.

As for `Cc1cc(S(=O)(=O)N[C@H]2CCN(CCOCCNC(=O)NCCCCNC(=O)NCCOCCN3CC[C@H](NS(=O)(=O)c4ccc(O[C@H]5c6cc(Cl)cc(Cl)c6C[C@@H]5N(C)C)c(C)c4)C3)C2)ccc1O[C@H]1c2cc(Cl)cc(Cl)c2C[C@@H]1N(C)C` [Example 52, 3-(2-[2-[(3S)-3-[(4-[[(1S,2S)-4,6-Dichloro-2-(dimethylamino)-2,3-dihydro-1H-inden-1-yl]oxy]-3-methylbenzene)sulfonamido]pyrrolidin-1-yl]ethoxy]ethyl)-1-(4-[[(2-[2-[(3S)-3-[(4-[[(1S,2S)-4,6-dichloro-2-(dimethylamino)-2,3-dihydro-1H-inden-1-yl]oxy]-3-methylbenzene)sulfonamido]pyrrolidin-1-yl]ethoxy]ethyl)carbamoyl]amino]butyl)urea], in test [1], the “Fecal fluid content (Δ from vehicle)” value was “B (5-10)”. In addition, the response vs control in vivo at 15 mg/kg in test [1] (setting [2]) is more than 200%. The response vs control in vivo at 15 mg/kg in test [1] (setting [3]) was 50 to 70%. Further, at NHE3, the “% inhibition” value is “C (>70%)” and the pIC50 entry is recorded as “C (NHE3 pIC50 > 7)”.

Take `Cc1cc(S(=O)(=O)N[C@@H]2CCN(CCOCCNC(=O)NCCCCNC(=O)NCCOCCN3CC[C@@H](NS(=O)(=O)c4ccc(O[C@H]5c6cc(Cl)cc(Cl)c6C[C@@H]5N(C)C)c(C)c4)C3)C2)ccc1O[C@H]1c2cc(Cl)cc(Cl)c2C[C@@H]1N(C)C` [Example 53, 3-(2-[2-[(3R)-3-[(4-[[(1S,2S)-4,6-Dichloro-2-(dimethylamino)-2,3-dihydro-1H-inden-1-yl]oxy]-3-methylbenzene)sulfonamido]pyrrolidin-1 yl]ethoxy]ethyl)-1-(4-[[(2-[2-[(3R)-3-[(4-[[(1S,2S)-4,6-dichloro-2-(dimethylamino)-2,3-dihydro-1H-inden-1-yl]oxy]-3-methylbenzene)sulfonamido]pyrrolidin-1-yl]ethoxy]ethyl)carbamoyl]amino]butyl)urea]: the “Fecal fluid content (Δ from vehicle)” value in test [1] was “B (5-10)”. In test [1] (setting [2]), the response vs control in vivo at 15 mg/kg is less than 150%. Besides, the response vs control in vivo at 15 mg/kg in test [1] (setting [3]) was more than 70%. On NHE3, the “% inhibition” value is recorded as “C (>70%)” and the pIC50 entry is “C (NHE3 pIC50 > 7)”.

In the case of `Cc1cc(S(=O)(=O)N[C@@H]2CCN(CCOCCNC(=O)NCCCCNC(=O)NCCOCCN3CC[C@@H](NS(=O)(=O)c4ccc(O[C@H]5c6cc(Cl)cc(C#N)c6C[C@@H]5N(C)C)c(C)c4)C3)C2)ccc1O[C@H]1c2cc(Cl)cc(C#N)c2C[C@@H]1N(C)C` [Example 55, 3-(2-[2-[(3R)-3-[(4-[[(1S,2S)-6-Chloro-4-cyano-2-(dimethylamino)-2,3-dihydro-1H-inden-1-yl]oxy]-3-methylbenzene)sulfonamido]pyrrolidin-1-yl]ethoxy]ethyl)-1-(4-[[(2-[2-[(3R)-3-[(4-[[(1S,2S)-6-chloro-4-cyano-2-(dimethylamino)-2,3-dihydro-1H-inden-1-yl]oxy]-3-methylbenzene)sulfonamido]pyrrolidin-1-yl]ethoxy]ethyl)carbamoyl]amino]butyl)urea], the “Fecal fluid content (Δ from vehicle)” value in test [1] is “B (5-10)”. Also, the results for the response vs control in vivo at 15 mg/kg in test [1] (setting [2]) and in test [1] (setting [3]) were 150 to 200% and more than 70%, respectively. The “% inhibition” value on NHE3 is given as “C (>70%)”.

On to `Cc1cc(O[C@H]2c3cc(Cl)cc(Cl)c3C[C@@H]2N(C)C)c(F)cc1S(=O)(=O)NCCOCCOCCNC(=O)NCCCCNC(=O)NCCOCCOCCNS(=O)(=O)c1cc(F)c(O[C@H]2c3cc(Cl)cc(Cl)c3C[C@@H]2N(C)C)cc1C` [Example 88, 3-[2-(2-[2-[(4-[[(1S,2S)-4,6-Dichloro-2-(dimethylamino)-2,3-dihydro-1H-inden-1-yl]oxy]-5-fluoro-2-methylbenzene)sulfonamido]ethoxy]ethoxy)ethyl]-1-[4-([[2-(2-[2-[(4-[[(1S,2S)-4,6-dichloro-2-(dimethylamino)-2,3-dihydro-1H-inden-1-yl]oxy]-5-fluoro-2-methylbenzene)sulfonamido]ethoxy]ethoxy)ethyl]carbamoyl]amino)butyl]urea], for which the “Fecal fluid content (Δ from vehicle)” value in test [1] is “B (5-10)”. The response vs control in vivo at 15 mg/kg in test [1] (setting [2]) was in the range of 150 to 200%. For the same compound, the response vs control in vivo at 15 mg/kg in test [1] (setting [3]) lay within 50 to 70%. On NHE3, the “% inhibition” value was “C (>70%)” and the pIC50 entry is listed as “C (NHE3 pIC50 > 7)”.
